From ChEMBL document CHEMBL3044870, “Effect of clomazone on various market classes of dry beans” (Crop Prot, 2007)

Experiments:
Type in all cases: organism-based
Settings in all cases: in vivo, other
[1] = system: Phaseolus vulgaris; experiment: Phytotoxicity against Phaseolus vulgaris (otebo beans) assessed as visual crop injury at 2232 g a.i./ha applied pre-emergence 1 to 2 days post-planting measured on day 14 post-emergence relative to control
[2] = system: Phaseolus vulgaris; experiment: Phytotoxicity against Phaseolus vulgaris (kidney beans) assessed as visual crop injury at 2232 g a.i./ha applied pre-emergence 1 to 2 days post-planting measured on day 14 post-emergence relative to control
[3] = system: Phaseolus vulgaris; experiment: Phytotoxicity against Phaseolus vulgaris (kidney beans) assessed as visual crop injury at 1116 g a.i./ha applied pre-emergence 1 to 2 days post-planting measured on day 14 post-emergence relative to control
[4] = system: Phaseolus vulgaris; experiment: Phytotoxicity against Phaseolus vulgaris (black beans) assessed as visual crop injury at 1116 g a.i./ha applied pre-emergence 1 to 2 days post-planting measured on day 14 post-emergence relative to control
[5] = system: Phaseolus vulgaris; experiment: Phytotoxicity against Phaseolus vulgaris (yellow eye beans) assessed as visual crop injury at 1116 g a.i./ha applied pre-emergence 1 to 2 days post-planting measured on day 14 post-emergence relative to control
[6] = system: Phaseolus vulgaris; experiment: Phytotoxicity against Phaseolus vulgaris (dry beans) assessed as visual crop injury at 2232 g a.i./ha applied pre-emergence 1 to 2 days post-planting measured on day 28 post-emergence relative to control
[7] = system: Phaseolus vulgaris; experiment: Phytotoxicity against Phaseolus vulgaris (yellow eye beans) assessed as yield at 2232 g a.i./ha applied pre-emergence 1 to 2 days post-planting measured on day 42 post-emergence (reference value: 2.3 tons/ha)
[8] = system: Phaseolus vulgaris; experiment: Phytotoxicity against Phaseolus vulgaris (white beans) assessed as yield at 2232 g a.i./ha applied pre-emergence 1 to 2 days post-planting measured on day 42 post-emergence (reference value: 3 tons/ha)
[9] = system: Phaseolus vulgaris; experiment: Phytotoxicity against Phaseolus vulgaris (pinto beans) assessed as yield at 2232 g a.i./ha applied pre-emergence 1 to 2 days post-planting measured on day 42 post-emergence (reference value: 3.1 tons/ha)
[10] = system: Phaseolus vulgaris; experiment: Phytotoxicity against Phaseolus vulgaris (otebo beans) assessed as yield at 1116 g a.i./ha applied pre-emergence 1 to 2 days post-planting measured on day 42 post-emergence (reference value: 3.4 tons/ha)
[11] = system: Phaseolus vulgaris; experiment: Phytotoxicity against Phaseolus vulgaris (cranberry beans) assessed as yield at 2232 g a.i./ha applied pre-emergence 1 to 2 days post-planting measured on day 42 post-emergence (reference value: 3.1 tons/ha)
[12] = system: Phaseolus vulgaris; experiment: Phytotoxicity against Phaseolus vulgaris (cranberry beans) assessed as yield at 1116 g a.i./ha applied pre-emergence 1 to 2 days post-planting measured on day 42 post-emergence (reference value: 3.1 tons/ha)
[13] = system: Phaseolus vulgaris; experiment: Phytotoxicity against Phaseolus vulgaris (black beans) assessed as yield at 2232 g a.i./ha applied pre-emergence 1 to 2 days post-planting measured on day 42 post-emergence (reference value: 3.6 tons/ha)
[14] = system: Phaseolus vulgaris; experiment: Phytotoxicity against Phaseolus vulgaris (yellow eye beans) assessed as shoot dry weight at 2232 g a.i./ha applied pre-emergence 1 to 2 days post-planting measured on day 42 post-emergence (reference value: 162 g/m)
[15] = system: Phaseolus vulgaris; experiment: Phytotoxicity against Phaseolus vulgaris (white beans) assessed as shoot dry weight at 1116 g a.i./ha applied pre-emergence 1 to 2 days post-planting measured on day 42 post-emergence (reference value: 175 g/m)
[16] = system: Phaseolus vulgaris; experiment: Phytotoxicity against Phaseolus vulgaris (pinto beans) assessed as shoot dry weight at 2232 g a.i./ha applied pre-emergence 1 to 2 days post-planting measured on day 42 post-emergence (reference value: 168 g/m)
[17] = system: Phaseolus vulgaris; experiment: Phytotoxicity against Phaseolus vulgaris (otebo beans) assessed as shoot dry weight at 2232 g a.i./ha applied pre-emergence 1 to 2 days post-planting measured on day 42 post-emergence (reference value: 188 g/m)
[18] = system: Phaseolus vulgaris; experiment: Phytotoxicity against Phaseolus vulgaris (kidney beans) assessed as shoot dry weight at 2232 g a.i./ha applied pre-emergence 1 to 2 days post-planting measured on day 42 post-emergence (reference value: 145 g/m)
[19] = system: Phaseolus vulgaris; experiment: Phytotoxicity against Phaseolus vulgaris (kidney beans) assessed as shoot dry weight at 1116 g a.i./ha applied pre-emergence 1 to 2 days post-planting measured on day 42 post-emergence (reference value: 145 g/m)
[20] = system: Phaseolus vulgaris; experiment: Phytotoxicity against Phaseolus vulgaris (cranberry beans) assessed as shoot dry weight at 2232 g a.i./ha applied pre-emergence 1 to 2 days post-planting measured on day 42 post-emergence (reference value: 161 g/m)
[21] = system: Phaseolus vulgaris; experiment: Phytotoxicity against Phaseolus vulgaris (black beans) assessed as shoot dry weight at 2232 g a.i./ha applied pre-emergence 1 to 2 days post-planting measured on day 42 post-emergence (reference value: 165 g/m)
[22] = system: Phaseolus vulgaris; experiment: Phytotoxicity against Phaseolus vulgaris (yellow eye beans) assessed as plant height at 1116 g a.i./ha applied pre-emergence 1 to 2 days post-planting measured on day 28 post-emergence (reference value: 38 cm)
[23] = system: Phaseolus vulgaris; experiment: Phytotoxicity against Phaseolus vulgaris (white beans) assessed as plant height at 2232 g a.i./ha applied pre-emergence 1 to 2 days post-planting measured on day 28 post-emergence (reference value: 36 cm)
[24] = system: Phaseolus vulgaris; experiment: Phytotoxicity against Phaseolus vulgaris (white beans) assessed as plant height at 1116 g a.i./ha applied pre-emergence 1 to 2 days post-planting measured on day 28 post-emergence (reference value: 36 cm)
[25] = system: Phaseolus vulgaris; experiment: Phytotoxicity against Phaseolus vulgaris (pinto beans) assessed as plant height at 2232 g a.i./ha applied pre-emergence 1 to 2 days post-planting measured on day 28 post-emergence (reference value: 38 cm)
[26] = system: Phaseolus vulgaris; experiment: Phytotoxicity against Phaseolus vulgaris (pinto beans) assessed as plant height at 1116 g a.i./ha applied pre-emergence 1 to 2 days post-planting measured on day 28 post-emergence (reference value: 38 cm)
[27] = system: Phaseolus vulgaris; experiment: Phytotoxicity against Phaseolus vulgaris (otebo beans) assessed as plant height at 2232 g a.i./ha applied pre-emergence 1 to 2 days post-planting measured on day 28 post-emergence (reference value: 38 cm)
[28] = system: Phaseolus vulgaris; experiment: Phytotoxicity against Phaseolus vulgaris (cranberry beans) assessed as plant height at 1116 g a.i./ha applied pre-emergence 1 to 2 days post-planting measured on day 28 post-emergence (reference value: 37 cm)
[29] = system: Phaseolus vulgaris; experiment: Phytotoxicity against Phaseolus vulgaris (brown beans) assessed as plant height at 2232 g a.i./ha applied pre-emergence 1 to 2 days post-planting measured on day 28 post-emergence (reference value: 37 cm)
[30] = system: Phaseolus vulgaris; experiment: Phytotoxicity against Phaseolus vulgaris (brown beans) assessed as plant height at 1116 g a.i./ha applied pre-emergence 1 to 2 days post-planting measured on day 28 post-emergence (reference value: 37 cm)
[31] = system: Phaseolus vulgaris; experiment: Phytotoxicity against Phaseolus vulgaris (yellow eye beans) assessed as visual crop injury at 2232 g a.i./ha applied pre-emergence 1 to 2 days post-planting measured on day 14 post-emergence relative to control

## CC1(C)CON(Cc2ccccc2Cl)C1=O [CLOMAZONE]
[1]
  Activity: 11%
[2]
  Activity: 10%
[3]
  Activity: 5%
[4]
  Activity: 3%
[5]
  Activity: 6%
[6]
  Activity: 4%
[7]
  Crop_yield: 2.5 tons/ha
[8]
  Crop_yield: 3.2 tons/ha
[9]
  Crop_yield: 3 tons/ha
[10]
  Crop_yield: 3.4 tons/ha
[11]
  Crop_yield: 3 tons/ha
[12]
  Crop_yield: 3.2 tons/ha
[13]
  Crop_yield: 3.3 tons/ha
[14]
  Activity: 130 g/m
[15]
  Activity: 174 g/m
[16]
  Activity: 146 g/m
[17]
  Activity: 168 g/m
[18]
  Activity: 116 g/m
[19]
  Activity: 142 g/m
[20]
  Activity: 137 g/m
[21]
  Activity: 150 g/m
[22]
  Activity: 36 cm
[23]
  Activity: 32 cm
[24]
  Activity: 34 cm
[25]
  Activity: 32 cm
[26]
  Activity: 36 cm
[27]
  Activity: 34 cm
[28]
  Activity: 35 cm
[29]
  Activity: 35 cm
[30]
  Activity: 35 cm
[31]
  Activity: 10%
